In US20230364051A1, “FORMULATIONS AND METHODS FOR IMPROVING AVIAN HEALTH” (CORNELL UNIVERSITY, priority 2022, published 2023):

Key:
ZIP6 = assay: Duodenal gene expression by RT-qPCR: ZIP6; assay type: in vivo, Gallus gallus; details: 2.5 wt. % genistein vs all other treatment groups, p < 0.05; duodenum
Procedure: Cornish-cross fertile broiler eggs (Gallus gallus, n = 39) were obtained from a commercial hatchery (Moyer’s chicks, Quakertown, PA, USA). The eggs were incubated under optimal conditions at the Cornell University Animal Science Poultry Farm Incubator [18]. All animal protocols were approved by Cornell University Institutional Animal Care and Use committee (IACUC #2020-0077). At day 17 of embryonic incubation, eggs containing viable embryos were weighed and divided into 5 groups, with all treatment groups assigned eggs of similar weight frequency distribution. Each group was then injected with the specific solution (1 mL per egg) with a 21-gauge needle into the amniotic fluid. Treatments in powder form were separately diluted in DI H2O. […]
Total RNA was extracted from 30 mg of the proximal duodenal (n=6) or liver tissues (n=6) using Qiagen RNeasy Mini Kit (Qiagen Inc., Valencia, CA) according to the manufacturer’s protocol. […] RNA was quantified by absorbance at 260-280 nm using a NanoDrop 2000 (ThermoFisher Scientific, Waltham, MA). […]
As previously described. cDNA was generated using a 20 uL reverse transcriptase (RT) reaction in a BioRad C1000 touch thermocycler using the Improm-II Reverse Transcriptase Kit (Catalog #A1250; Promega, Madison, WI, USA). […] Genomic DNA contamination was assessed using a RT-PCR assay for the reference of genes samples. […]

[1] = system: cecal microbiota pathways; assay: Cecal 16S rRNA gene sequencing, LEfSe analysis; assay type: in vivo, Gallus gallus; details: genistein treatment; cecal contents
Procedure: Cornish-cross fertile broiler eggs (Gallus gallus, n = 39) were obtained from a commercial hatchery (Moyer’s chicks, Quakertown, PA, USA). The eggs were incubated under optimal conditions at the Cornell University Animal Science Poultry Farm Incubator [18]. All animal protocols were approved by Cornell University Institutional Animal Care and Use committee (IACUC #2020-0077). At day 17 of embryonic incubation, eggs containing viable embryos were weighed and divided into 5 groups, with all treatment groups assigned eggs of similar weight frequency distribution. Each group was then injected with the specific solution (1 mL per egg) with a 21-gauge needle into the amniotic fluid. Treatments in powder form were separately diluted in DI H2O. Two treatment groups (1.25, 2.5 wt. %), two controls (H2O and non-injected), and a positive control (5 wt. % inulin) were administered. After injection, the injection holes were sealed with cellophane tape and the eggs were placed in hatching baskets such that each treatment was equally represented at each incubator location. Immediately upon hatch (day 21), blood was taken for hemoglobin determination and all chicks were then euthanized by CO2 exposure. The small intestine, pectoral muscle, cecum, and liver were collected, immediately frozen in liquid nitrogen, and then stored in a -80° C. freezer until analysis. […]

hepcidin = details: human hepatocytes; cited from earlier work
[2] = maternal intake perinatally and throughout pregnancy, mice; cited from earlier work

O=c1c(-c2ccc(O)cc2)coc2cc(O)cc(O)c12 [Genistein, genistein]
Gene expression of ZIP6 (ZIP6): significantly downregulated
Pathways associated with de novo synthesis of vitamin B12 (LEfSe) [1]: enriched
Hepcidin transcription levels and promoter activity (hepcidin): increased
Harmful effects of a high-fat fed diet in dams and offspring [2]: mitigated
